Measurements: ChEMBL document CHEMBL1201862, “PubChem BioAssay data set” (2004)
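Cultured in 96-well plates, cells were exposed to test compound for 48 hours across five concentrations. Here, GI50 denotes the concentration required for 50% inhibition of growth.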 Active and inactive are the calls of the source. Cut-off read from the data, not from the text of the source: active = GI50 up to about 1.1 µM and inactive = higher.

Tests used:
Assay in all cases: NCI tumour cell line growth inhibition, 48 h
[1] = test system: COLO 205
[2] = test system: OVCAR-5
[3] = test system: MDA-MB-231
[4] = test system: RPMI-8226
[5] = test system: LOX IMVI
[6] = test system: NCI/ADR-RES
[7] = test system: PC-3
[8] = test system: SK-OV-3
[9] = test system: SW-620
[10] = test system: HCC 2998
[11] = test system: CAKI-1
[12] = test system: U-251
[13] = test system: SN12C
[14] = test system: ACHN
[15] = test system: NCI-H23
[16] = test system: T47D
[17] = test system: A549
[18] = test system: CCRF-CEM
[19] = test system: UO-31
[20] = test system: DU-145
[21] = test system: HCT-116
[22] = test system: MDA-N
[23] = test system: TK-10
[24] = test system: MCF7
[25] = test system: HT-29
[26] = test system: SR
[27] = test system: OVCAR-8
[28] = test system: NCI-H460
[29] = test system: NCI-H522
[30] = test system: OVCAR-3
[31] = test system: NCI-H226
[32] = test system: HCT-15
[33] = test system: HOP-62
[34] = test system: OVCAR-4
[35] = test system: IGROV-1
[36] = test system: M14
[37] = test system: UACC-257
[38] = test system: Hs-578T
[39] = test system: SK-MEL-2
[40] = test system: SK-MEL-5
[41] = test system: A498
[42] = test system: SNB-75
[43] = test system: HL-60
[44] = test system: SNB-19
[45] = test system: K562
[46] = test system: HOP-92
[47] = test system: SK-MEL-28
[48] = test system: MOLT-4
[49] = test system: MDA-MB-435
[50] = test system: SF-295
[51] = test system: RXF 393
[52] = test system: UACC-62
[53] = test system: SF-268
[54] = test system: 786-0
[55] = test system: SF-539
[56] = test system: KM12
[57] = test system: BT-549
[58] = test system: Malme-3M
[59] = test system: EKVX

`C=C[C@@](C)(/C=C/c1ccc(O)cc1)CCC=C(C)C` [BAKUCHIOL] was tested, and the GI50 [1] was 17.7 µM (inactive), the GI50 [2] was 19.2 µM (inactive) and the GI50 [3] was 18.6 µM (inactive). The GI50 [4] was 14.9 µM (inactive), the GI50 [5] was 18.2 µM (inactive) and the GI50 [6] was 16.2 µM (inactive). The GI50 [7] was 16.8 µM (inactive), the GI50 [8] was 16.3 µM (inactive) and the GI50 [9] was 17 µM (inactive). The GI50 [10] was 20.6 µM (inactive), the GI50 [11] was 18.6 µM (inactive) and the GI50 [12] was 16.9 µM (inactive). For the same molecule, the GI50 [13] was 18.5 µM (inactive), the GI50 [14] was 10.6 µM (inactive) and the GI50 [15] was 16.7 µM (inactive). For the same molecule, the GI50 [16] was 14 µM (inactive), the GI50 [17] was 17.8 µM (inactive) and the GI50 [18] was 14.8 µM (inactive). For the same molecule, the GI50 [19] was 17.7 µM (inactive), the GI50 [20] was 13.2 µM (inactive) and the GI50 [21] was 18.1 µM (inactive). For the same molecule, the GI50 [22] was 17.3 µM (inactive), the GI50 [23] was 17.1 µM (inactive) and the GI50 [24] was 19.5 µM (inactive). For the same molecule, the GI50 [25] was 16.5 µM (inactive), the GI50 [26] was 16.5 µM (inactive) and the GI50 [27] was 16.9 µM (inactive). The GI50 [28] was 15.6 µM (inactive), the GI50 [29] was 17.1 µM (inactive) and the GI50 [30] was 18.3 µM (inactive). The GI50 [31] was 19 µM (inactive), the GI50 [32] was 16.8 µM and the GI50 [33] was 19.1 µM (inactive). The GI50 [34] was 14 µM (inactive), the GI50 [35] was 15.8 µM (inactive) and the GI50 [36] was 19.1 µM (inactive). The GI50 [37] was 17.7 µM (inactive), the GI50 [38] was 20.9 µM (inactive) and the GI50 [39] was 22 µM (inactive). For the same molecule, the GI50 [40] was 16 µM (inactive), the GI50 [41] was 21.2 µM (inactive) and the GI50 [42] was 14 µM (inactive). The GI50 [43] was 14.1 µM (inactive), the GI50 [44] was 19.1 µM (inactive) and the GI50 [45] was 15.7 µM (inactive). For the same molecule, the GI50 [46] was 16.5 µM (inactive), the GI50 [47] was 20 µM (inactive) and the GI50 [48] was 13.1 µM (inactive). The GI50 [49] was 18.2 µM (inactive) and the GI50 [50] was 20.2 µM (inactive).

`O=S(=O)(Oc1ccc2ccccc2c1-c1c(OS(=O)(=O)C(F)(F)F)ccc2ccccc12)C(F)(F)F` was tested, and the GI50 [1] was > 100 µM (inactive), the GI50 [2] was > 100 µM (inactive) and the GI50 [3] was 42.7 µM (inactive). The GI50 [4] was 27.5 µM (inactive), the GI50 [51] was 43.4 µM (inactive) and the GI50 [6] was 84.5 µM (inactive). The GI50 [7] was 12.7 µM (inactive), the GI50 [8] was > 100 µM (inactive) and the GI50 [9] was > 100 µM (inactive). For the same molecule, the GI50 [52] was > 100 µM (inactive), the GI50 [10] was 31 µM (inactive) and the GI50 [11] was > 100 µM (inactive). The GI50 [12] was 32.1 µM (inactive), the GI50 [53] was > 100 µM (inactive) and the GI50 [14] was 2.75 µM (inactive). For the same molecule, the GI50 [15] was 75.2 µM (inactive), the GI50 [54] was > 100 µM (inactive) and the GI50 [17] was 35 µM (inactive). For the same molecule, the GI50 [18] was 29.3 µM (inactive), the GI50 [19] was 37.8 µM (inactive) and the GI50 [21] was 9.64 µM (inactive). For the same molecule, the GI50 [55] was > 100 µM (inactive), the GI50 [24] was > 100 µM (inactive) and the GI50 [25] was 41.9 µM (inactive). The GI50 [26] was 7.67 µM (inactive), the GI50 [27] was > 100 µM (inactive) and the GI50 [28] was 20 µM (inactive). For the same molecule, the GI50 [56] was > 100 µM (inactive), the GI50 [29] was 37.7 µM (inactive) and the GI50 [30] was 41.8 µM (inactive). For the same molecule, the GI50 [31] was 79.1 µM (inactive), the GI50 [32] was 32.4 µM and the GI50 [57] was > 100 µM (inactive). The GI50 [33] was > 100 µM (inactive), the GI50 [34] was 4.2 µM (inactive) and the GI50 [35] was > 100 µM (inactive). The GI50 [36] was 91.8 µM (inactive), the GI50 [37] was 1.32 µM (inactive) and the GI50 [58] was > 100 µM (inactive). The GI50 [38] was > 100 µM (inactive), the GI50 [39] was > 100 µM (inactive) and the GI50 [40] was 7.01 µM (inactive). The GI50 [41] was 26.4 µM (inactive), the GI50 [42] was > 100 µM (inactive) and the GI50 [43] was 11.3 µM (inactive). For the same molecule, the GI50 [44] was > 100 µM (inactive), the GI50 [45] was 16.9 µM (inactive) and the GI50 [46] was 12.5 µM (inactive). The GI50 [47] was > 100 µM (inactive), the GI50 [48] was 12.8 µM (inactive) and the GI50 [59] was 66.4 µM (inactive). The GI50 [49] was 45.5 µM (inactive) and the GI50 [50] was > 100 µM (inactive).

`COC(=O)CCC1(CCC(=O)OC)CCCCCCC(CCC(=O)OC)(CCC(=O)OC)C(=O)C1=O` was tested, and the GI50 [1] was 54 µM (inactive), the GI50 [2] was > 100 µM (inactive) and the GI50 [4] was < 0.01 µM (active). The GI50 [5] was > 100 µM (inactive), the GI50 [51] was > 100 µM (inactive) and the GI50 [6] was 81.5 µM (inactive). The GI50 [7] was 47.8 µM (inactive), the GI50 [8] was > 100 µM (inactive) and the GI50 [52] was > 100 µM (inactive). The GI50 [10] was 27.9 µM (inactive), the GI50 [11] was > 100 µM (inactive) and the GI50 [12] was > 100 µM (inactive). The GI50 [13] was > 100 µM (inactive), the GI50 [53] was > 100 µM (inactive) and the GI50 [14] was > 100 µM (inactive). For the same molecule, the GI50 [15] was > 100 µM (inactive), the GI50 [54] was > 100 µM (inactive) and the GI50 [16] was 20.5 µM (inactive). For the same molecule, the GI50 [17] was > 100 µM (inactive), the GI50 [19] was 44.4 µM (inactive) and the GI50 [20] was > 100 µM (inactive). The GI50 [21] was > 100 µM (inactive), the GI50 [22] was > 100 µM (inactive) and the GI50 [55] was > 100 µM (inactive). For the same molecule, the GI50 [23] was > 100 µM (inactive), the GI50 [24] was > 100 µM (inactive) and the GI50 [25] was 60.3 µM (inactive). For the same molecule, the GI50 [27] was > 100 µM (inactive), the GI50 [28] was 93.8 µM (inactive) and the GI50 [56] was > 100 µM (inactive). For the same molecule, the GI50 [29] was > 100 µM (inactive), the GI50 [30] was 55.3 µM (inactive) and the GI50 [31] was > 100 µM (inactive). For the same molecule, the GI50 [32] was over 100 µM, the GI50 [33] was > 100 µM (inactive) and the GI50 [35] was > 100 µM (inactive). For the same molecule, the GI50 [36] was 74.1 µM (inactive), the GI50 [37] was > 100 µM (inactive) and the GI50 [58] was > 100 µM (inactive). For the same molecule, the GI50 [38] was > 100 µM (inactive), the GI50 [39] was > 100 µM (inactive) and the GI50 [40] was 59 µM (inactive). The GI50 [41] was > 100 µM (inactive), the GI50 [42] was 49.1 µM (inactive) and the GI50 [44] was > 100 µM (inactive). The GI50 [45] was 23.6 µM (inactive), the GI50 [46] was 54.6 µM (inactive) and the GI50 [47] was > 100 µM (inactive). For the same molecule, the GI50 [59] was > 100 µM (inactive), the GI50 [49] was > 100 µM (inactive) and the GI50 [50] was > 100 µM (inactive).
